Assays:
[1] = molecular target: T1, Adenosine receptor A2b (Homo sapiens, UniProt P29275); experiment: Displacement [3H]DPCPX from human adenosine A2B receptor expressed in HEK293 cell membranes incubated for 60 mins by scintillation counting method
T1 sequence (P29275 whole entry): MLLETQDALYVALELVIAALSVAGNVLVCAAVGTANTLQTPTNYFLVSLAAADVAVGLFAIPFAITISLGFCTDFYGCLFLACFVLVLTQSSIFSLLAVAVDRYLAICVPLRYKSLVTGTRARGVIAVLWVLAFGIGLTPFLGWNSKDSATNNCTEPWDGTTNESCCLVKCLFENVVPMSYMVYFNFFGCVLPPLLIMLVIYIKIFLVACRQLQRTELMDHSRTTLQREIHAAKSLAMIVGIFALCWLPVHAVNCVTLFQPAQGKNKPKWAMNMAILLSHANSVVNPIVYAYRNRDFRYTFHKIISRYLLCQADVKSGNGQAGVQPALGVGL

[2] = molecular target: T2, Adenosine receptor A1 (Homo sapiens) (UniProt P30542); experiment: Displacement [3H]DPCPX from human adenosine A1 receptor expressed in CHO cell membranes at 1 uM incubated for 60 mins by scintillation counting method relative to control
T2 sequence (whole entry): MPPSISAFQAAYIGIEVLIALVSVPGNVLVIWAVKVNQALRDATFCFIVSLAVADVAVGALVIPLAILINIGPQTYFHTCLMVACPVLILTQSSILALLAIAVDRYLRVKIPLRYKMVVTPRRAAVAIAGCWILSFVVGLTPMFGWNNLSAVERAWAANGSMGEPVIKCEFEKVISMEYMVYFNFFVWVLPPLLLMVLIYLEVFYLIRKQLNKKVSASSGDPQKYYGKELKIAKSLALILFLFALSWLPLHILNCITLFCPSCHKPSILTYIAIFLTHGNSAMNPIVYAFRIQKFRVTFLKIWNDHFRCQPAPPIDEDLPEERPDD

[3] = molecular target: T3, Adenosine receptor A3 (Homo sapiens) (UniProt P0DMS8); experiment: Displacement [3H]NECA from adenosine A3 receptor in human HeLa cell membranes at 1 uM incubated for 180 mins by scintillation counting method relative to control
T3 sequence (whole entry): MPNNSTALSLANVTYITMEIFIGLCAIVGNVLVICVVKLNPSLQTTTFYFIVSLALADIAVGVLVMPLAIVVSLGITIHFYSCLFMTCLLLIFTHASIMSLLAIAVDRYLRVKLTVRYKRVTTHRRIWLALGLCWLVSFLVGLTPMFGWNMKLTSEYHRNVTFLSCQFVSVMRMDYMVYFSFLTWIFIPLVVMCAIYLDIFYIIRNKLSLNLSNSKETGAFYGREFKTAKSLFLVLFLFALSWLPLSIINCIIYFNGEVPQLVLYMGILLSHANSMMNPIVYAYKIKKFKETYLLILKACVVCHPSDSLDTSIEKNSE

[4] = molecular target: T4, Adenosine receptor A2a (Homo sapiens, UniProt P29274); experiment: Displacement [3H]ZM241385 from adenosine A2A receptor in human HeLa cell membranes at 1 uM incubated for 30 mins by scintillation counting method relative to control
T4 sequence (P29274 whole entry): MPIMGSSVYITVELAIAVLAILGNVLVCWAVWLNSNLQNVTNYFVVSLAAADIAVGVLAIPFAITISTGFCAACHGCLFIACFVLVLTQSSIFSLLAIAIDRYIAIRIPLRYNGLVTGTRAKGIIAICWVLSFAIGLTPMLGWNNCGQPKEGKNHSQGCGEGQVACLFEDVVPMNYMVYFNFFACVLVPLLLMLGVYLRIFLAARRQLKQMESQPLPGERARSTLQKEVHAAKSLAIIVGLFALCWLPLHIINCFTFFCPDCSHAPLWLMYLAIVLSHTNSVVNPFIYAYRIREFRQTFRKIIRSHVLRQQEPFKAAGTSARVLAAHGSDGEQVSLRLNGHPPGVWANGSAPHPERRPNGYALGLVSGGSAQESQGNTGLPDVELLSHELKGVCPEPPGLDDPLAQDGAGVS

[5] = molecular target: T5, Adenosine receptor A1 (Homo sapiens, UniProt P30542); experiment: Displacement [3H]DPCPX from human adenosine A1 receptor expressed in CHO cell membranes incubated for 60 mins by scintillation counting method
T5 sequence (P30542 whole entry): T2 sequence (whole entry)

[6] = molecular target: T4, Adenosine receptor A2a; experiment: Displacement [3H]ZM241385 from adenosine A2A receptor in human HeLa cell membranes incubated for 30 mins by scintillation counting method
[7] = molecular target: Cytochrome P450 3A4 (Homo sapiens, UniProt P08684); experiment: Inhibition of CYP3A4 (unknown origin) expressed in insect cell microsomes using dibenzylfluorescein substrate by fluorescence based assay; assay type: ADME
Sequence of Cytochrome P450 3A4 (P08684 whole entry): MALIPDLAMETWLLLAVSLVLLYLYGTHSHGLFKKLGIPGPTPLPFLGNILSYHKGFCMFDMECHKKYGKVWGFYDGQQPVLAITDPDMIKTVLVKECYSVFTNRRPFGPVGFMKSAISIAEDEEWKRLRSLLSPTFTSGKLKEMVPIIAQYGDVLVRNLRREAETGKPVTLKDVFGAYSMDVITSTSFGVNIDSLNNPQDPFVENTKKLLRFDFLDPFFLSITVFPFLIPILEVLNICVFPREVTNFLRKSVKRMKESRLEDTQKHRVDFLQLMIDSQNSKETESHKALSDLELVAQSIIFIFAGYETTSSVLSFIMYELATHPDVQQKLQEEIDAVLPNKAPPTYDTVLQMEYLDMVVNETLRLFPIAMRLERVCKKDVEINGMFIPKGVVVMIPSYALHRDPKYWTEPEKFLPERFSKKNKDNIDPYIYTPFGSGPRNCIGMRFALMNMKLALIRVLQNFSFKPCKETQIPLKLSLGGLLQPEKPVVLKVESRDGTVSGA

[8] = molecular target: T6, CYP2D6 (Homo sapiens, UniProt P10635); experiment: Inhibition of CYP2D6 (unknown origin) expressed in insect cell microsomes at 10 uM using dibenzylfluorescein substrate by fluorescence based assay relative to control; assay type: ADME; conditions: insect cell microsomes expressing CYP2D6, probe dibenzylfluorescein
T6 sequence (P10635 whole entry): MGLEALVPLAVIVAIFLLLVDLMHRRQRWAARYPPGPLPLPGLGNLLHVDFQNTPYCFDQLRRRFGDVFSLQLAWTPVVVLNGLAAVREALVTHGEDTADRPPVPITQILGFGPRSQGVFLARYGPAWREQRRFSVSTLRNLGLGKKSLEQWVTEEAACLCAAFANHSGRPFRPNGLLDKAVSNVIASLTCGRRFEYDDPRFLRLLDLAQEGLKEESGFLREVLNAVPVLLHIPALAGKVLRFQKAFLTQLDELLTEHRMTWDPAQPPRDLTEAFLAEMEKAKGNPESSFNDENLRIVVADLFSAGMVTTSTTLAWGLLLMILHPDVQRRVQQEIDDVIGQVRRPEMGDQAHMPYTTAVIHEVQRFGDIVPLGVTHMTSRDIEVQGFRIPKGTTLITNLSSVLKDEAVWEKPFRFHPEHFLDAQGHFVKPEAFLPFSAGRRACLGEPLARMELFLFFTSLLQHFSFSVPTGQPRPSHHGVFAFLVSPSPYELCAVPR

[9] = molecular target: T6, CYP2D6; experiment: Inhibition of CYP2D6 (unknown origin) expressed in insect cell microsomes at 1 uM using dibenzylfluorescein substrate by fluorescence based assay relative to control; assay type: ADME; conditions: insect cell microsomes expressing CYP2D6, probe dibenzylfluorescein

Row | Ki [1] [nM] | inhibition [2] [%] | inhibition [3] [%] | inhibition [4] [%] | Ki [5] [nM] | Ki [6] [nM] | IC50 [7] [nM] | inhibition at 10 µM [8] [%] | inhibition at 1 µM [9] [%] | Compound
1 | 789 | 2 | 3 | 1 | – | – | – | – | – | CCOC(=O)C1=C(C)Nc2nc3ccccc3n2C1c1ccon1 (racemic)
2 | 340 | – | 6 | 40 | 8.3 | – | – | – | – | CC1=C(C(=O)OC(C)C)C(c2cn[nH]c2)n2c(nc3ccccc32)N1 (racemic)
3 | 43.4 | 7 | 16 | 19 | – | – | 5920 | 43 | 23 | CC1=C(C(=O)OC(C)C)C(c2cocn2)n2c(nc3ccccc32)N1 (racemic)
4 | 753 | 5 | 20 | 4 | – | – | – | – | – | CC1=C(C(=O)OC(C)C)C(c2nccs2)n2c(nc3ccccc32)N1 (racemic)
5 | 517 | 19 | 2 | 1 | – | – | – | – | – | CC1=C(C(=O)OC(C)C)C(c2cc[nH]c2)n2c(nc3ccccc32)N1 (racemic)
6 | – | 14 | 23 | 2 | – | – | – | – | – | CC1=C(C(=O)OC(C)C)C(C2CCCC2)n2c(nc3ccccc32)N1 (racemic)
7 | – | 9 | 9 | 3 | – | – | – | – | – | CC1=C(C(=O)OC(C)C)C(c2ccccc2)n2c(nc3ccccc32)N1 (racemic)
8 | – | 7 | 3 | 16 | – | – | – | – | – | CCOC(=O)C1=C(C)Nc2nc3ccccc3n2C1c1c[nH]cn1 (racemic)
9 | – | 14 | 3 | 1 | – | – | – | – | – | CCOC(=O)C1=C(C)Nc2nc3ccccc3n2C1c1ccc(C)o1 (racemic)
10 | – | 20 | 14 | 11 | – | – | – | – | – | CCOC(=O)C1=C(C)Nc2nc3ccccc3n2C1c1cnsc1 (racemic)

The next lines start with the molecule.

Row | Compound | Ki [1] [nM] | inhibition [2] [%] | inhibition [3] [%] | inhibition [4] [%] | Ki [5] [nM] | Ki [6] [nM] | IC50 [7] [nM] | inhibition at 10 µM [8] [%] | inhibition at 1 µM [9] [%]
11 | CC1=C(C(=O)OC(C)C)C(c2ccon2)n2c(nc3ccccc32)N1 (racemic) | 721 | 1 | 4 | 2 | – | – | – | – | –
12 | CC1=C(C(=O)OC(C)C)C(c2cnoc2)n2c(nc3ccccc32)N1 (racemic) | 29.6 | 1 | 5 | 2 | – | – | – | – | –
13 | CCOC(=O)C1=C(C)Nc2nc3ccccc3n2C1c1ncco1 (racemic) | 769 | 8 | 10 | – | – | 2 | – | – | –
14 | CCOC(=O)C1=C(C)Nc2nc3ccccc3n2C1c1cn[nH]c1 (racemic) | 92.6 | – | 1 | 28 | 14.8 | – | – | – | –
15 | CC1=C(C(=O)OC(C)C)C(c2c[nH]cn2)n2c(nc3ccccc32)N1 (racemic) | – | 5 | 8 | 4 | – | – | – | – | –
16 | CC1=C(C(=O)OC(C)C)C(c2ccc(C)o2)n2c(nc3ccccc32)N1 (racemic) | – | 14 | 1 | 3 | – | – | – | – | –
17 | CC1=C(C(=O)OC(C)C)C(c2cscn2)n2c(nc3ccccc32)N1 (racemic) | – | 1 | 18 | 3 | – | – | – | – | –
18 | CC1=C(C(=O)OC(C)C)C(c2ncc[nH]2)n2c(nc3ccccc32)N1 (racemic) | – | 2 | 2 | 4 | – | – | – | – | –
19 | CCOC(=O)C1=C(C)Nc2nc3ccccc3n2C1C1CCCC1 (racemic) | – | 11 | 17 | 10 | – | – | – | – | –
20 | CCOC(=O)C1=C(C)Nc2nc3ccccc3n2C1c1ccccc1 (racemic) | – | 12 | 15 | 9 | – | – | – | – | –
21 | CCOC(=O)C1=C(C)Nc2nc3ccccc3n2C1c1cscn1 (racemic) | – | 1 | 2 | 1 | – | – | – | – | –

Reference: ChEMBL document CHEMBL4616721, “Nitrogen-Walk Approach to Explore Bioisosteric Replacements in a Series of Potent A2B Adenosine Receptor Antagonists” (J Med Chem, 2020)
